From ChEMBL document CHEMBL3608282 (Bioorg Med Chem Lett, 2015)

Key:
[1] = Therapeutic index, ratio of CC50 for PBMC (unknown origin) to EC50 for HCV genotype 1b; settings: PBMC (CC50) versus HCV genotype 1b (EC50)
[2] = Therapeutic index, ratio of CC50 for human CEM cells to EC50 for HCV genotype 1b; assay type: cell-based, CCRF-CEM; settings: CEM cells (CC50) versus HCV genotype 1b (EC50)
Hepatitis C virus [3] = experiment: Antiviral activity against HCV genotype 1b infected in human HuH7 cells assessed as reduction in viral RNA replication; assay type: functional, organism-based, Hepacivirus hominis; settings: Huh-7
[4] = Therapeutic index, ratio of CC50 for human HuH7 cells to EC50 for HCV genotype 1b; assay type: cell-based, Huh-7; settings: HuH7 cells (CC50) versus HCV genotype 1b (EC50)
PBMC = experiment: Cytotoxicity against PBMC (unknown origin); assay type: cell-based
Vero = experiment: Cytotoxicity against african green monkey Vero cells; assay type: cell-based; settings: chlorocebus sabaeus
CCRF-CEM = experiment: Cytotoxicity against human CEM cells; assay type: cell-based
[5] = Therapeutic index, ratio of CC50 for african green monkey Vero cells to EC50 for HCV genotype 1b; assay type: cell-based; settings: Vero cells (CC50) versus HCV genotype 1b (EC50)
Hepatitis C virus [6] = experiment: Antiviral activity against HCV genotype 1a; assay type: functional, organism-based, Hepacivirus hominis; settings: subtype 1a
Hepatitis C virus [7] = experiment: Antiviral activity against HCV genotype 1b expressing NS5A Y93H mutant infected in human HuH7 cells assessed as reduction in viral RNA replication; assay type: functional, organism-based, Hepacivirus hominis; settings: Huh-7
Hepatitis C virus [8] = experiment: Resistance index, ratio of EC50 for HCV genotype 1b expressing NS5A L31V mutant infected in human HuH7 cells to EC50 for wild type HCV genotype 1b infected in human HuH7 cells; assay type: functional, Hepacivirus hominis, Huh-7
Hepatitis C virus [9] = experiment: Antiviral activity against HCV genotype 1b expressing NS5A L31V mutant infected in human HuH7 cells assessed as reduction in viral RNA replication; assay type: functional, organism-based, Hepacivirus hominis; settings: Huh-7
Hepatitis C virus [10] = experiment: Antiviral activity against HCV genotype 2a; assay type: functional, organism-based, Hepacivirus hominis
[11] = Cytotoxicity against human HuH7 cells; assay type: cell-based; settings: huh-7
Hepatitis C virus [12] = experiment: Antiviral activity against wild type HCV genotype 1b infected in human HuH7 cells assessed as reduction in viral RNA replication; assay type: functional, organism-based, Hepacivirus hominis; settings: Huh-7

With `COC(=O)N[C@@H](CS(=O)(=O)Cc1ccccc1)C(=O)N1CCC[C@H]1c1ncc(-c2ccc(-c3ccc(-c4cnc([C@@H]5CCCN5C(=O)[C@@H](NC(=O)OC)C(C)C)[nH]4)cc3)cc2)[nH]1` the selectivity ratio [1] was over 1e+06, the selectivity ratio [2] was over 1e+06 and the EC50 (Hepatitis C virus [3]) was 0.02 nM. It also gave an EC90 (Hepatitis C virus [3]) of 0.1 nM, a selectivity ratio [4] of over 1e+06 and a CC50 (PBMC) of 21000 nM. It also gave a CC50 (Vero) of over 100000 nM, a CC50 (CCRF-CEM) of over 100000 nM and a selectivity ratio [5] of over 1e+06.

Molecule `COC(=O)N[C@@H](CSCc1ccccc1)C(=O)N1CCC[C@H]1c1ncc(-c2ccc(-c3ccc(-c4cnc([C@@H]5CCCN5C(=O)[C@@H](NC(=O)OC)C(C)C)[nH]4)cc3)cc2)[nH]1` has a selectivity ratio [1] of over 1e+06, a selectivity ratio [2] of over 1e+06 and an EC50 (Hepatitis C virus [6]) of 0.1 nM. It also gave an EC50 (Hepatitis C virus [3]) of 0.02 nM, an EC90 (Hepatitis C virus [3]) of 0.032 nM and an EC50 (Hepatitis C virus [7]) of over 0.33 nM. The selectivity ratio [4] was over 1e+06, the “Ratio EC50” value (Hepatitis C virus [8]) was over 3 and the CC50 (PBMC) was over 100000 nM. For the same molecule, the CC50 (Vero) was over 100000 nM, the EC50 (Hepatitis C virus [9]) was 0.39 nM and the CC50 (CCRF-CEM) was 82000 nM. For the same molecule, the EC50 (Hepatitis C virus [10]) was 0.039 nM, the CC50 [11] was over 330000 nM and the selectivity ratio [5] was over 1e+06. For the same molecule, the EC50 (Hepatitis C virus [12]) was 0.1 nM.

`COC(=O)N[C@@H](CSC)C(=O)N1CCC[C@H]1c1ncc(-c2ccc(-c3ccc(-c4cnc([C@@H]5CCCN5C(=O)[C@@H](NC(=O)OC)C(C)C)[nH]4)cc3)cc2)[nH]1` showed a selectivity ratio [1] of over 1e+06, a selectivity ratio [2] of over 1e+06 and an EC50 (Hepatitis C virus [3]) of 0.061 nM. It also gave an EC90 (Hepatitis C virus [3]) of 0.1 nM, a selectivity ratio [4] of over 1e+06 and a CC50 (PBMC) of 31000 nM. For the same molecule, the CC50 (Vero) was 18000 nM, the CC50 (CCRF-CEM) was 11000 nM and the selectivity ratio [5] was over 1e+06.

In the case of `COC(=O)N[C@H](C(=O)N1CCC[C@H]1c1nc(-c2ccc(-c3ccc(-c4c[nH]c([C@@H]5CCCN5C(=O)[C@@H](NC(=O)OC)C(C)C)n4)cc3)cc2)c[nH]1)C(C)C`, the EC50 (Hepatitis C virus [6]) is reported as 0.048 nM, the EC50 (Hepatitis C virus [3]) is reported as 0.004 nM and the EC90 (Hepatitis C virus [3]) is reported as 0.02 nM. The EC50 (Hepatitis C virus [7]) was 0.18 nM, the EC50 (Hepatitis C virus [9]) was 0.035 nM and the EC50 (Hepatitis C virus [10]) was 0.024 nM. For the same molecule, the CC50 [11] was over 15000 nM and the EC50 (Hepatitis C virus [12]) was 0.048 nM.

Work on `COC(=O)N[C@@H](CCSC)C(=O)N1CCC[C@H]1c1ncc(-c2ccc(-c3ccc(-c4cnc([C@@H]5CCCN5C(=O)[C@@H](NC(=O)OC)C(C)C)[nH]4)cc3)cc2)[nH]1` yielded a selectivity ratio [1] of over 1e+06, a selectivity ratio [2] of over 1e+06 and an EC50 (Hepatitis C virus [6]) of 0.059 nM. The EC50 (Hepatitis C virus [3]) was 0.03 nM, the EC90 (Hepatitis C virus [3]) was 0.1 nM and the EC50 (Hepatitis C virus [7]) was over 0.11 nM. The selectivity ratio [4] was over 1e+06, the CC50 (PBMC) was 41000 nM and the CC50 (Vero) was 40000 nM. It also gave an EC50 (Hepatitis C virus [9]) of 0.05 nM, a CC50 (CCRF-CEM) of 11000 nM and an EC50 (Hepatitis C virus [10]) of 0.027 nM. It also gave a CC50 [11] of over 330000 nM, a selectivity ratio [5] of over 1e+06 and an EC50 (Hepatitis C virus [12]) of 0.059 nM.

`COC(=O)N[C@@H](CSC(C)(C)C)C(=O)N1CCC[C@H]1c1ncc(-c2ccc(-c3ccc(-c4cnc([C@@H]5CCCN5C(=O)[C@@H](NC(=O)OC)C(C)C)[nH]4)cc3)cc2)[nH]1` showed a selectivity ratio [1] of over 1e+06, a selectivity ratio [2] of over 1e+06 and an EC50 (Hepatitis C virus [6]) of 0.14 nM. It also gave an EC50 (Hepatitis C virus [3]) of 0.03 nM, an EC90 (Hepatitis C virus [3]) of 0.1 nM and an EC50 (Hepatitis C virus [7]) of at least 0.33 nM. The selectivity ratio [4] was over 1e+06, the CC50 (PBMC) was 18000 nM and the CC50 (Vero) was 39000 nM. For the same molecule, the EC50 (Hepatitis C virus [9]) was 0.072 nM, the CC50 (CCRF-CEM) was 10000 nM and the EC50 (Hepatitis C virus [10]) was 0.055 nM. For the same molecule, the CC50 [11] was over 330000 nM, the selectivity ratio [5] was over 1e+06 and the EC50 (Hepatitis C virus [12]) was 0.14 nM.

For `COC(=O)N[C@@H](C[S+]([O-])Cc1ccccc1)C(=O)N1CCC[C@H]1c1ncc(-c2ccc(-c3ccc(-c4cnc([C@@H]5CCCN5C(=O)[C@@H](NC(=O)OC)C(C)C)[nH]4)cc3)cc2)[nH]1` (stereo partly specified), the selectivity ratio [1] was over 1e+06, the selectivity ratio [2] was over 1e+06 and the EC50 (Hepatitis C virus [3]) was 0.1 nM. For the same molecule, the EC90 (Hepatitis C virus [3]) was 0.3 nM, the selectivity ratio [4] was over 1e+06 and the CC50 (PBMC) was 42000 nM. It also gave a CC50 (Vero) of 11000 nM, a CC50 (CCRF-CEM) of 11000 nM and a selectivity ratio [5] of over 1e+06.
